The values that follow come from ChEMBL document CHEMBL4145665, “Structure-Activity Relationship of Novel and Selective Biaryl-Chroman GPR40 AgoPAMs” (ACS Med Chem Lett, 2018).

The term EC50 denotes the concentration giving half of the maximal effect. A word on the fraction unbound: it is free concentration divided by total concentration. Lower therefore signals little free substance. The IC50 is the concentration at which inhibition is half-maximal. Broadly, the logD is the decadic logarithm of the distribution of all forms, ionised or not, between an organic phase and buffer at a given pH. Higher therefore signals a more lipophilic compound. Usually inhibition in vivo stands for the relative decrease from the control value, in per cent. As usually defined, the bioavailability is dose-corrected exposure relative to a reference, in per cent. Low readings indicate little systemic uptake, high ones much systemic uptake.

Structures are written as SMILES.

The test system of series [1] is Rattus norvegicus. The series can be described thus: Antidiabetic activity in Sprague-Dawley rat assessed as inhibition of blood glucose AUC at 3 mg/kg, po treated prior to dextrose challenge and measured after 20 to 60 mins by IPGTT relative to control. Type of series: functional.
Series [2] concerns the target Free fatty acid receptor 1 (Rattus norvegicus, UniProt Q8K3T4). The series can be described thus: Agonist activity at recombinant rat GPR40 expressed in CHOK1 cells assessed as increase in IP1 accumulation measured after 60 mins by HTRF assay. Type of series: functional, cell-based.
Series [3] deals with Rattus norvegicus. The series can be described thus: Antidiabetic activity in po dosed Goto Kakizaki rats assessed as reduction in blood glucose excursion pretreated for 1 hr followed by dextrose challenge measured after 20 to 60 mins by OGTT method. Particulars: read-out: MED. The format is functional.
Series [4] in a line: Fraction unbound in Wistar-Han rat plasma at 1 mg/kg, iv or 2 mg/kg, po administered as single dose. Type of series: ADME, organism-based.
In series [5] the target is Bile salt export pump (Homo sapiens, UniProt O95342). The series can be described thus: Inhibition of human BSEP expressed in baculovirus infected Sf9 insect cell membrane vesicles assessed as reduction in ATP-dependent [3H]-taurocholic acid uptake. Type of series: ADME.
Sequence of Bile salt export pump (O95342 whole entry): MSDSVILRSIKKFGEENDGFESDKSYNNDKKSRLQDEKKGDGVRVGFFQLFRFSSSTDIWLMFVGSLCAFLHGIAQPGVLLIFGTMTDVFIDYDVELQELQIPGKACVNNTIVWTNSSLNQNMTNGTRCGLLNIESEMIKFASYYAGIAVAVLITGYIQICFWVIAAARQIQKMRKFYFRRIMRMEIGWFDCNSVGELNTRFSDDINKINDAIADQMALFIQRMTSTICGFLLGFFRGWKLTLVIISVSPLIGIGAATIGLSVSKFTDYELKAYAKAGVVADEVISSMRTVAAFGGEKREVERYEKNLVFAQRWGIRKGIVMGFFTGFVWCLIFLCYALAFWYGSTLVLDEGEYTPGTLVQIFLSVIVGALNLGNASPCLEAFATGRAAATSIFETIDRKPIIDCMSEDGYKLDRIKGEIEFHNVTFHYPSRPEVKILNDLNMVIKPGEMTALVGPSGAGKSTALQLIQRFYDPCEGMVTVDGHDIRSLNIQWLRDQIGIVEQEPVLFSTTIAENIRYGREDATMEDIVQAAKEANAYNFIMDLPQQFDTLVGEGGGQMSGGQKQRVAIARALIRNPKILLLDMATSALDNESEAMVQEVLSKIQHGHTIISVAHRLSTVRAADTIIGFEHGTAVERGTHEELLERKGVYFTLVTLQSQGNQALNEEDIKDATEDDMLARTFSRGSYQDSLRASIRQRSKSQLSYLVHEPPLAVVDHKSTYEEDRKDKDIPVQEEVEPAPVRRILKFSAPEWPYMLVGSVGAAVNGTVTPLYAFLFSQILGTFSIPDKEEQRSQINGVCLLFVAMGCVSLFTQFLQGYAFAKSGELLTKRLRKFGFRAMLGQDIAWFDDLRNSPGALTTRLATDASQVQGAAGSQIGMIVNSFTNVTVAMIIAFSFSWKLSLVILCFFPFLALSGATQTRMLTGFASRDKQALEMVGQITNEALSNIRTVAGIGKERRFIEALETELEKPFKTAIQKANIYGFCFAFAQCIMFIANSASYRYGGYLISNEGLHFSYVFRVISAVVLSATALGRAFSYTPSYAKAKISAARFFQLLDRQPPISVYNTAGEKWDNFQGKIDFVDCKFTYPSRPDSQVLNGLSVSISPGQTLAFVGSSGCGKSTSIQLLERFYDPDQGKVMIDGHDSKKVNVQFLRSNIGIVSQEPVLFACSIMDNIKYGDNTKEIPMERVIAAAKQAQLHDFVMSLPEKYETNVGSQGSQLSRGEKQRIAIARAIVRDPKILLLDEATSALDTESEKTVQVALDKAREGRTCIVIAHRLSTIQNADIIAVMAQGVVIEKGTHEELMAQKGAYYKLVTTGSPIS
Series [6] in a line: Lipophilicity, log D of the compound at pH 7 at 100 uM by HPLC method. The format is physicochemical. Particulars: buffer.
The target of series [7] is T1, Free fatty acid receptor 4 (Homo sapiens, UniProt Q5NUL3).
T1 sequence (Q5NUL3 whole entry): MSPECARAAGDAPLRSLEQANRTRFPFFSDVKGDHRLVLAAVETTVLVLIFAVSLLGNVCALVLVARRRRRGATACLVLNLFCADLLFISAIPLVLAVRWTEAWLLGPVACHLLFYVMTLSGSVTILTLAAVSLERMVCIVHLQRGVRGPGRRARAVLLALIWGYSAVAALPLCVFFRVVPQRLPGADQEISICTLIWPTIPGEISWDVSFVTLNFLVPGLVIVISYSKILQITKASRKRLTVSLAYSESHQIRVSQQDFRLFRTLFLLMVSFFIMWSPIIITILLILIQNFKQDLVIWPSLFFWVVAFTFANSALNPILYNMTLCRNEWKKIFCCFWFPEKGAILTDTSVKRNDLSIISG
The series can be described thus: Agonist activity at GPR120 (unknown origin). The format is functional.

The target of series [8] is T2, Free fatty acid receptor 1 (Homo sapiens, UniProt O14842). The series can be described thus: Agonist activity at recombinant human GPR40 expressed in HEK293 cells assessed as increase in IP1 accumulation measured after 60 mins by HTRF assay relative to AM-1638. The format is functional, cell-based. A general note: TR-FRET usually uses a lanthanide donor and a delayed reading to cut background.
T2 sequence (O14842 whole entry): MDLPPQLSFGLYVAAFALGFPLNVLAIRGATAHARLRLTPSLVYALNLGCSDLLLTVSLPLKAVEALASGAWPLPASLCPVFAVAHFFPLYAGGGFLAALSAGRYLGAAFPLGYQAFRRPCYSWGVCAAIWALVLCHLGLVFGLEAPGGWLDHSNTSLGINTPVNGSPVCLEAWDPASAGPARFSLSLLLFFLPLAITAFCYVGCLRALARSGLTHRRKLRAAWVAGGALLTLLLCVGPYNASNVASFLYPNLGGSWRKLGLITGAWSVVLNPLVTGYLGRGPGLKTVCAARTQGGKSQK

Series [9] addresses T2, Free fatty acid receptor 1. The series can be described thus: Agonist activity at recombinant human GPR40 expressed in HEK293 cells assessed as increase in IP1 accumulation measured after 60 mins in presence of 100% human serum by HTRF assay relative to AM-1638. The format is functional, cell-based.
Series [10] deals with Free fatty acid receptor 1 (Rattus norvegicus) (UniProt Q8K3T4). The series can be described thus: Agonist activity at recombinant rat GPR40 expressed in CHOK1 cells assessed as increase in IP1 accumulation measured after 60 mins by HTRF assay relative to AM-1638. The format is functional, cell-based.
Sequence of Free fatty acid receptor 1 (Rattus norvegicus) (Q8K3T4 whole entry): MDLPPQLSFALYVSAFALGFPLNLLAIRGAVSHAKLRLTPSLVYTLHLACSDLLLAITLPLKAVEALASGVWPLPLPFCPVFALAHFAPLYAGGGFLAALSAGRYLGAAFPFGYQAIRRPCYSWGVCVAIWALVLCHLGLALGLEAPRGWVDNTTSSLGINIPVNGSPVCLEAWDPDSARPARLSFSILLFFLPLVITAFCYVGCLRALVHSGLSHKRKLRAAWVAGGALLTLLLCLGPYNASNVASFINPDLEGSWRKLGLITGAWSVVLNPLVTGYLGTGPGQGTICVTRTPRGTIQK
Series [11] has as its system Rattus norvegicus. The series can be described thus: Antidiabetic activity in po dosed Goto Kakizaki rats assessed as plasma concentration required for reduction in blood glucose excursion at MED pretreated for 1 hr followed by dextrose challenge measured 3 hrs post dose by OGTT. Type of series: functional, organism-based.
For series [12], the system named is Rattus norvegicus. The series can be described thus: Antidiabetic activity in Goto Kakizaki rats assessed as inhibition of blood glucose AUC at 0.3 mg/kg, po pretreated for 1 hr followed by dextrose challenge measured after 20 to 60 mins by OGTT method relative to control. The format is functional.
Series [13] has as its target T2, Free fatty acid receptor 1. The series can be described thus: Agonist activity at recombinant human GPR40 expressed in HEK293 cells assessed as increase in IP1 accumulation measured after 60 mins by HTRF assay. The format is functional, cell-based.
The target in series [14] is T2, Free fatty acid receptor 1. The series can be described thus: Agonist activity at recombinant human GPR40 expressed in HEK293 cells assessed as increase in IP1 accumulation measured after 60 mins in presence of 100% human serum by HTRF assay. The format is functional, cell-based.
The nature of series [15]: Clearance in Wistar-Han rat at 1 mg/kg, iv or 2 mg/kg, po administered as single dose. Type of series: ADME, organism-based. Particulars: in vivo.
Series [16] can be described thus: Volume of distribution at steady state in Wistar-Han rat at 1 mg/kg, iv or 2 mg/kg, po administered as single dose. Type of series: ADME, organism-based. Particulars: in vivo, read-out: Vdss.
Series [17] in a line: Effective half life in Wistar-Han rat at 1 mg/kg, iv or 2 mg/kg, po administered as single dose. The format is ADME, organism-based. Particulars: in vivo, read-out: t1/2eff (converted).
Series [18] in a line: Oral bioavailability in Wistar-Han rat at 2 mg/kg administered as single dose. The format is ADME, organism-based. Particulars: in vivo.
In series [19] the test system is Rattus norvegicus. The series can be described thus: Antidiabetic activity in Goto Kakizaki rats assessed as inhibition of blood glucose AUC at 1 mg/kg, po pretreated for 1 hr followed by dextrose challenge measured after 20 to 60 mins by OGTT method relative to control. Type of series: functional.
For series [20], the system named is Rattus norvegicus. The series can be described thus: Antidiabetic activity in Goto Kakizaki rats assessed as inhibition of blood glucose AUC at 3 mg/kg, po pretreated for 1 hr followed by dextrose challenge measured after 20 to 60 mins by OGTT method relative to control. The format is functional.
In series [21] the test system is Rattus norvegicus. The series can be described thus: Antidiabetic activity in Goto Kakizaki rats assessed as inhibition of blood glucose AUC at 10 mg/kg, po pretreated for 1 hr followed by dextrose challenge measured after 20 to 60 mins by OGTT method relative to control. The format is functional.
For series [22], the system named is Rattus norvegicus. The series can be described thus: Antidiabetic activity in Goto Kakizaki rats assessed as inhibition of blood glucose AUC at 30 mg/kg, po pretreated for 1 hr followed by dextrose challenge measured after 20 to 60 mins by OGTT method relative to control. Type of series: functional.
Series [23] deals with Rattus norvegicus. The series can be described thus: Antidiabetic activity in Goto Kakizaki rats assessed as plasma concentration required for reduction in blood glucose excursion at 0.3 mg/kg, po pretreated for 1 hr followed by dextrose challenge measured 3 hrs post dose by OGTT. Type of series: functional, organism-based.
Series [24] has as its system Rattus norvegicus. The series can be described thus: Antidiabetic activity in Goto Kakizaki rats assessed as plasma concentration required for reduction in blood glucose excursion at 1 mg/kg, po pretreated for 1 hr followed by dextrose challenge measured 3 hrs post dose by OGTT. The format is functional, organism-based.
Series [25] relates to Rattus norvegicus. The series can be described thus: Antidiabetic activity in Goto Kakizaki rats assessed as plasma concentration required for reduction in blood glucose excursion at 3 mg/kg, po pretreated for 1 hr followed by dextrose challenge measured 3 hrs post dose by OGTT. The format is functional, organism-based.
Series [26] has as its system Rattus norvegicus. The series can be described thus: Antidiabetic activity in Goto Kakizaki rats assessed as plasma concentration required for reduction in blood glucose excursion at 10 mg/kg, po pretreated for 1 hr followed by dextrose challenge measured 3 hrs post dose by OGTT. The format is functional, organism-based.
Series [27] concerns Rattus norvegicus. The series can be described thus: Antidiabetic activity in Goto Kakizaki rats assessed as plasma concentration required for reduction in blood glucose excursion at 30 mg/kg, po pretreated for 1 hr followed by dextrose challenge measured 3 hrs post dose by OGTT. Type of series: functional, organism-based.

Sequence of Free fatty acid receptor 1 (Rattus norvegicus, UniProt Q8K3T4) (Q8K3T4 whole entry): as above

`COc1ccc(F)c(-c2ccc(C3CCc4ccc([C@H](C5CC5)[C@H](C)C(=O)[O-])cc4O3)nc2)c1.[Na+]` (stereo in doubt; 16): the “inhibition (INH)” value in [1] turned out to be 99%. For the same molecule, the EC50 was 0.0023 µM in series [2] and over 10 µM in series [7]. Besides, the minimal effective dose in [3] worked out at 30 mg/kg. The same molecule had a free fraction (fraction unbound) in series [4] of 0.003. In addition, the IC50 in series [5] stood at 0.3 µM. In addition, the logD at 100 µM in series [6] stood at 2.25.
On to `COc1ccc(F)c(-c2ccc(C3CCc4ccc([C@H](C5CC5)[C@H](C)C(=O)O)cc4O3)cc2)c1` (stereo in doubt; 14), for which the max activation in series [8] is over 179%; in [9], over 179%; in series [10], over 370%. Besides, the Cp in [11] amounted to 3 µM.
Turning to `COc1cc(-c2ccc(C3CCc4ccc([C@H](C5CC5)[C@H](C)C(=O)[O-])cc4O3)nc2)c(F)cn1.[Na+]` (stereo in doubt; 29), the inhibition in vivo at 0.3 mg/kg in series [12] stood at 35%. Also, the EC50 in series [13] was 0.0027 µM; in series [14], 0.243 µM; in series [2] it was 0.0052 µM; in series [7], over 10 µM. In addition, the inhibition in vivo at 3 mg/kg in series [1] (Rattus norvegicus, Sprague-Dawley, po) turned out to be 108%; in [20], 96%. The minimal effective dose in series [3] is 30 mg/kg. In series [4], the fraction unbound turned out to be 0.001. For the same molecule, the clearance in series [15] was 0.072 L/h/kg. In addition, the Vd in series [16] amounted to 0.41 L/kg. In addition, in [17], the half-life was 6.4 h. For the same molecule, the bioavailability in series [18] was 100%. Besides, in [19], the inhibition in vivo at 1 mg/kg was 69%. For the same molecule, in [21], the inhibition in vivo at 10 mg/kg was 111%. The inhibition in vivo at 30 mg/kg in series [22] came out at 121%. In addition, the half-inhibitory concentration (IC50) in [5] amounted to 3.2 µM.
Regarding `COc1ccc(F)c(-c2ccc(C3CCc4ccc([C@H](C5CC5)[C@H](C)C(=O)[O-])cc4O3)cc2)c1.[Na+]` (stereo in doubt; 14), the 50% effective concentration (EC50) in series [13] was 0.0011 µM; in [14] it was 0.146 µM; in [2] it was 0.0012 µM; in [7] it was over 10 µM. Further, the “inhibition (INH)” value in series [1] is 103%. For the same molecule, in series [3], the minimal effective dose is 10 mg/kg. The molecule further returned a free fraction (fraction unbound) in series [4] of 0.005. In [15], this molecule registered a clearance of 0.186 L/h/kg. Further, in [16], the Vd came to 0.41 L/kg. Besides, the half-life in series [17] is 3.5 h. The molecule also returned a bioavailability in series [18] of 50%. In addition, the IC50 in [5] is 1.4 µM. For the same molecule, in series [6], the logD at 100 µM is 2.94.
With `COc1ccc(F)c(-c2ccc(C3CCc4ccc([C@H](C5CC5)[C@H](C)C(=O)O)cc4O3)nc2)c1` (stereo in doubt; 16), the max activation in [8] is over 179%; in series [9] it was over 179%; in series [10], over 370%. Moreover, in [11], the Cp amounted to 13.9 µM.
For `COc1cc(-c2ccc(C3CCc4ccc([C@H](C5CC5)[C@H](C)C(=O)O)cc4O3)nc2)c(F)cn1` (stereo in doubt; 29), the results for the max activation in series [8], in series [9] and in [10] were over 179%, over 179% and over 370%, respectively. The Cp in series [11] amounted to 32 µM; in series [23], 0.44 µM; in series [24] it was 2 µM; in series [25], 5.4 µM; in series [26], 11 µM; in [27], 32 µM.
